Results: US20240140931A1, “TRICYCLIC COMPOUNDS AND USES THEREOF” (HUTCHMED LIMITED, priority 2021, published 2024)

Columns and labels:
[1] = test system: pERK1/2 (Thr202/Tyr204) in Miapaca2 cells; assay: Assay of intracellular pERK1/2 (Thr202/Tyr204) phosphorylation; format: cell-based; settings: pERK1/2 (Thr202/Tyr204) HTRF
Summary of the method: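 HTRF read-out (665/615 nm) of phospho-ERK1/2 Thr202/Tyr204 in lysates from Miapaca2 cells exposed for 2 h to 3-fold compound dilutions at 0.5% final DMSO. Controls: lysis buffer without cells and DMSO-treated cells; IC50 from four-parameter logistic fit.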

Miapaca2 3D spheroids = assay: Assay of cell proliferation on Miapaca2 3D spheroids; format: cell-based; settings: CellTiter-Glo 3D, 5 days treatment
Experimental: Example 4 Assay of Cell Proliferation on Miapaca2 3D Spheroids
1. Reagents and Materials • CellTiter-Glo® 3D Cell Viability Assay Kit: Promega, Cat #G9683; • CellCarrier Spheroid ULA 96-well plate: Corning, Cat #4515; • Instrument: Envision, Perkinelmer; • Cell line: Miapaca2, ATCC, Cat #CRL-1420.
2. Preparation of Reaction Solutions • The test compound was dissolved in DMSO and diluted with DMSO to 3000.0 μM, and the compound was further 3-fold diluted with DMSO to: 1000.0, 333.3, 111.1, 37.0, 12.3, 4.1, and 1.4 μM. Then 2 μL of the compound at different dilution concentrations was added to 198 μL of a 1640 medium to prepare a 10× test compound, wherein DMSO was at the concentration of 1% (DMSO was at the final concentration of 0.1%).
3. Experimental Methods • Day0: Digest cells and count cell numbers. Miapaca2 cells were inoculated into a spheroid ULA 96-well plate at a density of 300 cells/well at 100 μL/well and cultured in a cell incubator at 5% CO2 and 37° C. • Day2: The cell spheroids formed at day2. Add 10 μL of 10× test compounds to the 96-well plate. To the cell positive control well was added 10 μL of 1% DMSO 1640 medium. Incubate the cell spheroids in a cell incubator at 5% CO2 and 37° C. for additional 5 days. • Cell viability assay: Add 50 μL of CellTiter-Glo reagent to each well, place the plate in a microplate shaker, and lysis under shaking at 900 rpm at room temperature for 5 minutes. Then incubate the plate at room temperature in the dark for 30 minutes. • The luminescene of each well was detected on Envision2104.
Cell Survial %=(Lum(d7 treatment)−Lum(d2 cell))/(Lum(d7 cell)−Lum(d2 cell))×100
Wherein: • Lum(d7 treatment) refers to the luminescene of the test compound treated cells on day7; • Lum(d2 cell) refers to the luminescene of the 0.1% DMSO treated Miapaca2 cells on day2; • Lum(d7 cell) refers to the luminescene of the 0.1% DMSO treated Miapaca2 cells on day7. • IC50 values were calculated following formula 205: y=A+((B−A)/(1+((C/X)^D))), by using the XL-Fit 5.0 software.

[2] = biological target: Human full-length SHP2 recombinant protein (Homo sapiens (Human), UniProt Q06124); assay: Assay of full-length SHP2 phosphatase activity; format: biochemical; settings: DiFMUP substrate, with activating peptide
Summary of the method: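 Readout: DiFMUP hydrolysis fluorescence (355/460 nm) after 60 min at 25 °C, following 30 min RT preincubation of compound with peptide-activated full-length human SHP2. Controls were 1% DMSO with or without enzyme; IC50 by four-parameter logistic fit.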

[3] = Homo sapiens, MIA PaCa-2, 120 h

Human full-length SHP2 recombinant protein, sequence (Q06124 whole entry): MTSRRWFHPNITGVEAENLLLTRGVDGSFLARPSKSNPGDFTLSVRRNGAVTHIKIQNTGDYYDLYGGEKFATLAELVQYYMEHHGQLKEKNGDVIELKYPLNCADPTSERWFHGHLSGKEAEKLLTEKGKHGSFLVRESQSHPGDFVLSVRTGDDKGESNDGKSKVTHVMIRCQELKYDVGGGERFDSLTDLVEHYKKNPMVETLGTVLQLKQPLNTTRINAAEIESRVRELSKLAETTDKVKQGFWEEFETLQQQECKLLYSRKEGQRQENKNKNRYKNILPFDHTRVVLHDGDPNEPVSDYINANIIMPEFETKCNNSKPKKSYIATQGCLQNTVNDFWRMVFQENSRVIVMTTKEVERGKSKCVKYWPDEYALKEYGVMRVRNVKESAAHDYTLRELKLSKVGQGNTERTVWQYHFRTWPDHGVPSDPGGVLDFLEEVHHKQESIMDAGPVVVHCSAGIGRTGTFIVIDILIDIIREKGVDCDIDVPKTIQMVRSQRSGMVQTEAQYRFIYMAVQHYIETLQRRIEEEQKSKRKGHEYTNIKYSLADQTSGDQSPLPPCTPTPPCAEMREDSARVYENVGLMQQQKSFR

Row | Compound | IC50 ([1]; 2 hours) [nM] | IC50 (Miapaca2 3D spheroids; [3]) [nM] | IC50 [2] [nM] | IC50 ([1]; Homo sapiens, MIA PaCa-2, 2 h) [nM] | IC50 (Miapaca2 3D spheroids) [nM]
1 | CNC(=O)C#Cc1ccc2c(c1)[C@@H](N)C1(CCN(c3cc(=O)n(-c4cccc(OC)c4Cl)c(C)n3)CC1)C2 (atropisomer, axis not shown) [Compound 182] | 23 | 18 | 1 | – | –
2 | NC(=O)C#Cc1ccc2c(c1)[C@@H](N)C1(CCN(c3cnc(Sc4ccnc(N)c4F)c(N)n3)CC1)C2 [Compound 275] | – | 2 | 0.5 | 2 | –
3 | C#Cc1ccc2c(c1)[C@@H](N)C1(CCN(c3ncc(Sc4ccnc(C)n4)n4nccc34)CC1)C2 [Compound 178] | – | 41 | 2 | 48 | –
4 | CNC(=O)C#Cc1ccc2c(c1)[C@@H](N)C1(CCN(c3cnc(Sc4ccnc(N)c4Cl)cn3)CC1)C2 [Compound 227] | – | 0.4 | 1 | 2 | –
5 | CNC(=O)C#Cc1ccc2c(c1)[C@@H](N)C1(CCN(c3cnc(Sc4ccnc(N)n4)cn3)CC1)C2 [Compound 262] | – | 1 | 0.3 | 7 | –
6 | CNC(=O)C#Cc1ccc2c(c1)[C@@H](N)C1(CCN(c3ncc(Sc4ccnc(N)n4)nc3C)CC1)C2 [Compound 233] | – | 3.2 | 1.1 | 14 | –
7 | COCCNC(=O)C#Cc1ccc2c(c1)[C@@H](N)C1(CCN(c3cnc(Sc4ccnc(N)c4Cl)cn3)CC1)C2 [Compound 297] | – | 0.3 | 0.3 | 1 | –
8 | C#Cc1ccc2c(c1)[C@@H](N)C1(CCN(c3nc(N)c(Sc4ccnc(N)c4Cl)c(=O)n3C)CC1)C2 [Compound 282] | – | 2 | 1 | 3 | –
9 | Cc1nc(Sc2ccnc(N)c2Cl)c(N)nc1N1CCC2(CC1)Cc1ccc(C#CC(=O)N(C)C)cc1[C@H]2N [Compound 203] | – | 16 | 2 | 7 | –
10 | CCNC(=O)C#Cc1ccc2c(c1)[C@@H](N)C1(CCN(c3ncc(Sc4ccnc(N)c4Cl)nc3C)CC1)O2 [Compound 259] | – | 5 | 4 | 23 | –
11 | CC#Cc1ccc2c(c1)[C@@H](N)C1(CCN(c3cc(=O)n(-c4ccc(F)c(F)c4Cl)c(C)n3)CC1)C2 (atropisomer, axis not shown) [Compound 217] | 49 | 62 | 1 | – | –
12 | CNC(=O)C#Cc1ccc2c(c1)[C@@H](N)C1(CCN(c3cnc(Sc4ccnc(N)c4F)cn3)CC1)C2 [Compound 265] | – | 0.4 | 0.4 | 0.9 | –
13 | CCNC(=O)C#Cc1ccc2c(c1)[C@@H](N)C1(CCN(c3cnc(Sc4cccnc4C(F)(F)F)c(N)n3)CC1)C2 [Compound 235] | – | 0.9 | 1.7 | 9 | –
14 | CNC(=O)C#Cc1ccc2c(c1)[C@@H](N)C1(CCN(c3nc(N)c(Sc4ccnc(OC)c4Cl)nc3C)CC1)C2 [Compound 188] | – | 47 | 5 | 14 | –
15 | CNC(=O)C#Cc1ccc2c(c1)[C@@H](N)C1(CCN(c3nc(C)n(-c4cccc(Cl)c4Cl)c(=O)c3C)CC1)C2 [Compound 174] | – | 53 | 6 | 33 | –
16 | CC#Cc1ccc2c(c1)[C@@H](N)C1(CCN(c3cc(=O)n(-c4ccc(F)c(OC)c4Cl)c(C)n3)CC1)C2 (atropisomer, axis not shown) [Compound 207] | 9 | 35 | 2 | – | –
17 | Cc1nc(N2CCC3(CC2)Cc2ccc(C#CC(N)=O)cc2[C@H]3N)cnc1Sc1ccnc(N)n1 [Compound 281] | – | 24 | 10 | 167 | –
18 | COCC#Cc1ccc2c(c1)[C@@H](N)C1(CCN(c3cc(=O)n(-c4ccc(F)c(OC)c4Cl)c(C)n3)CC1)C2 [Compound 158] | 31 | – | 3 | – | 32

Row | Compound | IC50 ([1]; 2 hours) [nM] | IC50 (Miapaca2 3D spheroids; [3]) [nM] | IC50 [2] [nM] | IC50 ([1]; Homo sapiens, MIA PaCa-2, 2 h) [nM] | IC50 (Miapaca2 3D spheroids) [nM]
19 | CC#Cc1ccc2c(c1)[C@@H](N)C1(CCN(c3nc(C)n(-c4cccc(Cl)c4Cl)c(=O)c3F)CC1)C2 [Compound 170] | – | 162 | 9 | 143 | –
20 | C#Cc1ccc2c(c1)[C@@H](N)C1(CCN(c3cnc(Sc4ccnc(N)c4Cl)cn3)CC1)C2 [Compound 252] | – | 1 | 1 | 3 | –
21 | C#Cc1ccc2c(c1)[C@@H](N)C1(CCN(c3nc(N)c(Sc4ccnc(N)c4Cl)nc3C)CC1)C2 [Compound 241] | – | 3.8 | 1.2 | 10 | –
22 | COCC#Cc1ccc2c(c1)[C@@H](N)C1(CCN(c3cc(=O)n(-c4ccc(F)c(OC)c4Cl)c(C)n3)CC1)C2 (atropisomer, axis not shown) [Compound 163] | 14 | 20 | 1 | – | –
23 | Cc1nc(Sc2ccnc(N)c2Cl)c(N)nc1N1CCC2(CC1)Cc1ccc(C#CC(=O)NC3CC3)cc1[C@H]2N [Compound 225] | – | 2 | 2 | 6 | –
24 | CCNC(=O)C#Cc1ccc2c(c1)[C@@H](N)C1(CCN(c3cnc(Sc4cc(N)nc(Cl)c4Cl)c(N)n3)CC1)C2 [Compound 255] | – | 3 | 3 | 8 | –
25 | C#Cc1ccc2c(c1)[C@@H](N)C1(CCN(c3ncc(Sc4ccnc(N)c4Cl)n4ncnc34)CC1)C2 [Compound 179] | – | 65 | 4 | 112 | –
26 | C#Cc1ccc2c(c1)[C@@H](N)C1(CCN(c3ncc(Sc4ccnc(N)c4Cl)c(=O)n3CC)CC1)C2 [Compound 294] | – | 9 | 1 | 18 | –
27 | Cc1nc(N2CCC3(CC2)Cc2ccc(C#CC(N)=O)cc2[C@H]3N)cnc1Sc1cc(N)nc(Cl)c1Cl [Compound 280] | – | 35 | 11 | 35 | –
28 | CCNC(=O)C#Cc1ccc2c(c1)[C@@H](N)C1(CCN(c3ncc(Sc4ccnc(N)n4)nc3C)CC1)C2 [Compound 261] | – | 2 | 0.9 | 7 | –
29 | CNC(=O)C#Cc1ccc2c(c1)[C@@H](N)C1(CCN(c3nc(N)c(Sc4ccnc(N)n4)nc3C)CC1)C2 [Compound 216] | – | 28 | 1 | 45 | –
30 | CNC(=O)C#Cc1ccc2c(c1)[C@@H](N)C1(CCN(c3nc(N)c(Sc4ccnc(N)c4Cl)nc3F)CC1)C2 [Compound 239, (S)-3-(1-amino-1′-(6-amino-5-((2-amino-3-chloropyridin-4-yl)thio)-3-fluoropyrazin-2-yl)-1,3-dihydrospiro[indene-2,4′-piperidin]-6-yl)-N-methylpropiolamide] | – | 2.1 | 3 | 15 | –
31 | CCNC(=O)C#Cc1ccc2c(c1)[C@@H](N)C1(CCN(c3cnc(Sc4cc(N)nc(Cl)c4Cl)cn3)CC1)C2 [Compound 256] | – | 6 | 4 | 12 | –
32 | NC(=O)NCC#Cc1ccc2c(c1)[C@@H](N)C1(CCN(c3cnc(Sc4ccnc(N)c4Cl)c(N)n3)CC1)C2 [Compound 159, (S)-1-(3-(1-amino-1′-(6-amino-5-((2-amino-3-chloropyridin-4-yl)thio)pyrazin-2-yl)-1,3-dihydrospiro[indene-2,4′-piperidin]-6-yl)prop-2-yn-1-yl)urea] | – | 6 | 1 | 5 | –
33 | CCNC(=O)C#Cc1ccc2c(c1)[C@@H](N)C1(CCN(c3nc(N)c(Sc4ccnc(N)c4Cl)nc3C)CC1)C2 [Compound 219] | – | 6 | 3 | 7 | –
34 | CCNC(=O)C#Cc1ccc2c(c1)[C@@H](N)C1(CCN(c3ncc(Sc4ccnc(N)c4Cl)nc3C)CC1)C2 [Compound 290] | – | 0.3 | 1 | 4 | –
35 | C#Cc1ccc2c(c1)[C@@H](N)C1(CCN(c3cc(=O)n(-c4cccc(Cl)c4Cl)c(N)n3)CC1)C2 [Compound 245] | – | 17 | < 0.5 | 12 | –
